Data: the Kinase Knowledgebase extract (Sharma et al. 2016)

Target: CDK2 (human) (UniProt P24941)
Assay: Enzyme Assay

Compound | IC50
COC(=O)[C@H](Cc1ccc(O)cc1)NC(=O)c1cc(C(=O)O)c2cc(-c3ccc(Cl)c(Cl)c3)ccc2n1 | ≤ 1 µM
Cc1cnc([C@H](Cc2ccc(O)cc2)NCc2cc(C(=O)O)c3cc(-c4cccc(C(F)(F)F)c4)ccc3n2)o1 | ≤ 1 µM
COC[C@H](Cc1ccc(O)cc1)NC(=O)c1cc(C(=O)O)c2cc(-c3cccc(C(F)(F)F)c3)ccc2n1 | ≤ 1 µM
CCCCCCCc1ccc2nc(C(=O)N[C@H](COC)Cc3ccc(O)cc3)cc(C(=O)O)c2c1 | ≤ 1 µM
COC(=O)[C@H](Cc1ccc(O)cc1)NC(=O)c1cc(C(=O)O)c2cc(CCc3ccc(C(F)(F)F)cc3)ccc2n1 | ≤ 1 µM
COC(=O)[C@H](Cc1ccc(O)cc1)NC(=O)c1cc(C(=O)O)c2cc(-c3cccc(C#N)c3)ccc2n1 | ≤ 1 µM
COC(=O)[C@H](Cc1ccc(O)cc1)NC(=O)c1cc(C(=O)O)c2cc(-c3ccc(C)s3)ccc2n1 | ≤ 1 µM
COC[C@H](Cc1ccc(O)cc1)NC(=O)c1cc(C(=O)O)c2cc(-c3cccc(Cn4ccccc4=O)c3)ccc2n1 | ≤ 1 µM
COC(=O)[C@H](Cc1ccc(O)cc1)NC(=O)c1cc(C(=O)O)c2cc(-c3ccc(OC(F)(F)F)cc3)ccc2n1 | ≤ 1 µM
O=C(N[C@@H](Cc1ccc(O)cc1)c1ncc[nH]1)c1cc(C(=O)O)c2cc(-c3cccc(C(F)(F)F)c3)ccc2n1 | ≤ 1 µM
COC[C@H](Cc1ccc(O)cc1)NC(=O)c1cc(-c2nnn[nH]2)c2cc(-c3cccc(C(F)(F)F)c3)ccc2n1 | ≤ 1 µM
COC(=O)[C@H](Cc1ccc(O)cc1)NC(=O)c1cc(C(=O)O)c2cc(-c3ccc(F)c(Cl)c3)ccc2n1 | ≤ 1 µM
O=C(NC(Cc1ccc(O)cc1)C1CCCCC1)c1cc(C(=O)O)c2cc(-c3cccc(C(F)(F)F)c3)ccc2n1 (stereo not given) | ≤ 1 µM
COC(=O)[C@H](Cc1ccc(O)cc1)NC(=O)c1cc(C(=O)O)c2cc(-c3ccc(C)c([N+](=O)[O-])c3)ccc2n1 | ≤ 1 µM
COC(=O)[C@H](Cc1ccc(O)cc1)NC(=O)c1cc(C(=O)O)c2cc(C=Cc3ccc(F)cc3)ccc2n1 | ≤ 1 µM
COC(=O)[C@H](Cc1ccc(O)cc1)NC(=O)c1cc(C(=O)O)c2cc(-c3cc(Cl)cc(Cl)c3)ccc2n1 | ≤ 1 µM
COC[C@H](Cc1ccc(O)cc1)NC(=O)c1cc(S(=O)(=O)O)c2cc(-c3cccc(C(F)(F)F)c3)ccc2n1 | ≤ 1 µM
COC(=O)[C@H](Cc1ccc(O)cc1)NC(=O)c1cc(C(=O)O)c2cc(-c3cccc(-c4ccccc4)c3)ccc2n1 | ≤ 1 µM
COC(=O)[C@H](Cc1ccc(O)cc1)NC(=O)c1cc(C(=O)O)c2cc(CCc3ccc(F)cc3)ccc2n1 | ≤ 1 µM
CCCCCC#Cc1ccc2nc(C(=O)N[C@H](COC)Cc3ccc(O)cc3)cc(C(=O)O)c2c1 | ≤ 1 µM
COC(=O)[C@H](Cc1ccc(O)cc1)NC(=O)c1cc(C(=O)O)c2cc(-c3cc4ccccc4o3)ccc2n1 | ≤ 1 µM
CON=C[C@H](Cc1ccc(O)cc1)NC(=O)c1cc(C(=O)O)c2cc(-c3cccc(C(F)(F)F)c3)ccc2n1 | ≤ 1 µM
COC[C@H](Cc1ccc(O)cc1)NC(=O)c1cc(NS(=O)(=O)C(C)(C)C)c2cc(-c3cccc(COc4ccccn4)c3)ccc2n1 | ≤ 1 µM
CCCCCCc1ccc2nc(C(=O)N[C@@H](Cc3ccc(O)cc3)C(=O)OC)cc(C(=O)O)c2c1 | ≤ 1 µM
COC(=O)[C@H](Cc1ccc(O)cc1)NC(=O)c1cc(C(=O)O)c2cc(-c3cccc([N+](=O)[O-])c3)ccc2n1 | ≤ 1 µM

Compound | IC50
COC(=O)[C@H](Cc1ccc(O)cc1)NC(=O)c1cc(C(=O)O)c2cc(CCc3ccc(Cl)cc3)ccc2n1 | ≤ 1 µM
COC(=O)[C@H](Cc1ccc(O)cc1)NC(=O)c1cc(C(=O)O)c2cc(-c3cccc(C(C)C)c3)ccc2n1 | ≤ 1 µM
COC(=O)[C@H](Cc1ccc(O)cc1)NC(=O)c1cc(C(=O)O)c2cc(C=Cc3ccc(Cl)cc3)ccc2n1 | ≤ 1 µM
COC(=O)[C@H](Cc1ccc(O)cc1)NC(=O)c1cc(C(=O)O)c2cc(CCc3ccccc3)ccc2n1 | ≤ 1 µM
COC(=O)[C@H](Cc1ccc(O)cc1)NC(=O)c1cc(C(=O)O)c2cc(-c3ccc(C(C)C)cc3)ccc2n1 | ≤ 1 µM
COC(=O)[C@H](Cc1ccc(O)cc1)NC(=O)c1cc(C(=O)O)c2cc(-c3ccc(Oc4ccccc4)cc3)ccc2n1 | ≤ 1 µM
COC(=O)[C@H](Cc1ccc(O)cc1)NC(=O)c1cc(C(=O)O)c2cc(-c3cc(C)cc(C)c3)ccc2n1 | ≤ 1 µM
COC(=O)[C@H](Cc1ccc(O)cc1)NC(=O)c1cc(C(=O)O)c2cc(-c3ccccc3)ccc2n1 | ≤ 1 µM
COC(=O)[C@H](Cc1ccc(O)cc1)NC(=O)c1cc(C(=O)O)c2cc(C=CC(C)(C)C)ccc2n1 | ≤ 1 µM
CCCCCC=Cc1ccc2nc(C(=O)N[C@H](COC)Cc3ccc(O)cc3)cc(C(=O)O)c2c1 | ≤ 1 µM
COC(=O)[C@H](Cc1ccc(O)cc1)NC(=O)c1cc(NS(C)(=O)=O)c2cc(-c3cccc(C(F)(F)F)c3)ccc2n1 | ≤ 1 µM
COC(=O)[C@H](Cc1ccc(O)cc1)NC(=O)c1cc(C(=O)O)c2cc(CCC(C)(C)C)ccc2n1 | ≤ 1 µM
COC[C@H](Cc1ccc(O)cc1)NC(=O)c2cc(C(=O)O)c3cc(ccc3n2)c4cccc(CN5=CC(=CC=C5)O)c4 | ≤ 1 µM
COC(=O)[C@H](Cc1ccc(O)cc1)NC(=O)c1cc(C(=O)O)c2cc(-c3ccc(F)c(C)c3)ccc2n1 | ≤ 1 µM
COC(=O)[C@H](Cc1ccc(O)cc1)NC(=O)c1cc(C(=O)O)c2cc(-c3cccs3)ccc2n1 | ≤ 1 µM
COC[C@H](Cc1ccc(O)cc1)NC(=O)c1cc(C(=O)O)c2cc(C=Cc3ccc(Cl)cc3)ccc2n1 | ≤ 1 µM
COC(=O)[C@H](Cc1ccc(O)cc1)NC(=O)c1cc(C(=O)O)c2cc(-c3ccc(Cl)cc3)ccc2n1 | ≤ 1 µM
COC[C@H](Cc1ccc(O)cc1)NC(=O)c1cc(C(=O)O)c2cc(OCc3ccc(C(F)(F)F)cc3)ccc2n1 | ≤ 1 µM
CNC(=O)[C@H](Cc1ccc(O)cc1)NC(=O)c1cc(C(=O)O)c2cc(C=Cc3ccc(Cl)cc3)ccc2n1 | ≤ 1 µM
COC(=O)[C@H](Cc1ccc(O)cc1)NC(=O)c1cc(C(=O)O)c2cc(-c3cc4ccccc4s3)ccc2n1 | ≤ 1 µM
CN(C)C(=O)[C@H](Cc1ccc(O)cc1)NC(=O)c1cc(C(=O)O)c2cc(C=Cc3ccc(Cl)cc3)ccc2n1 | ≤ 1 µM
CCCC(Cc1ccc(O)cc1)NC(=O)c1cc(C(=O)O)c2cc(-c3cccc(C(F)(F)F)c3)ccc2n1 (stereo not given) | ≤ 1 µM
O=C(N[C@@H](Cc1ccc(O)cc1)C(=O)NC1CC1)c1cc(C(=O)O)c2cc(C=Cc3ccc(Cl)cc3)ccc2n1 | ≤ 1 µM
COC(=O)[C@H](Cc1ccc(O)cc1)NC(=O)c1cc(C(=O)O)c2cc(-c3cccc(C)c3)ccc2n1 | ≤ 1 µM
COC(=O)[C@H](Cc1ccc(O)cc1)NC(=O)c1cc(C(=O)O)c2cc(-c3ccc(OC)cc3)ccc2n1 | ≤ 1 µM
